Where a SMILES comes first, the peptide text is derived from it.
Columns and labels:
[1] = target: T1, KRAS-G12V-JAK1 interaction (Homo sapiens, UniProt P01116, G12V); assay: GST-affinity pull-down assay under endogenous conditions; type: binding; design: endogenous in cells; conditions: FIG. 2F
[2] = target: T1, KRAS-G12V-JAK1 interaction; assay: TR-FRET assay of the KRAS-G12V/JAK1 interaction in HEK293T lysate; type: binding; conditions: FIG. 2B, 2D
Protocol: TR-FRET titration assay was performed with HEK293T lysate that had been co-transfected with His-KRAS-G12V and Flag-JAK1. TR-FRET signals were recorded upon treatment with the synthetic peptide 8-mer (RasKi) or the 9-mer control (0 to 50 μM).
Cell lysate from HEK293T cells co-expressing GST-KRAS-G12V and Venus-Flag-JAK1 was treated with the synthetic peptide 8-mer WT ([…], SEQ ID NO: 1) or an 8-mer with K606E mutation. A panel of mutations in 8-mer (5 μM) were tested including M603A ([…], SEQ ID NO: 2).

[3] = test system: KRAS isogenic cell lines SW48, LIM1215, H838; assay: NK92 cell-induced death of KRAS-WT and G12V isogenic cells; type: cell-based; conditions: FIG. 4C
Description: Dose-dependent killing curves of RasKi/8-mer peptide are shown for KRAS WT and G12V isogenic SW48, LIM1215, H838 cell lines with or without NK92 cell stimulation from cell viability readouts.
RasKi dose-dependent cell death curves were established for KRAS isogenic cell lines treated with JAK1 inhibitor or IFNγ-receptor antagonist in response to NK92 cell stimulation. Bar graphs show integrated results from area under curve (AUC) data of each treatment condition.

JAK-STAT pathway [4] = assay: Western blot of JAK-STAT pathway signaling in HEK293T cells; type: cell-based; conditions: HEK293T with KRAS-G12V, FIG. 3B
Protocol: Western Blot was performed to detect the JAK-STAT pathway signaling change in HEK293T cells with overexpressed JAK1 along with KRAS-WT, G12V, or G12V with 8-mer, with or without IFN-γ stimulation (1 ng/ml, 30 minutes). FOC bar graphs show the levels of phosphorylated STAT1 and STAT3 phosphorylation, and the expression of IRF1 and TAP1 after IFN-γ stimulation in comparison to that without stimulation.

[5] = test system: IFN-γ stimulated STAT1 transcription; assay: STAT1 transcription dual-luciferase assay in HEK293T cells; type: cell-based; conditions: JAK1 and KRAS-G12V co-expressed with RasKi, 1 ng/ml IFN-γ 18 hours, FIG. 3A
Protocol: STAT1 transcriptional activity was tested in HEK293T cells with a dual-luciferase assay. Luciferase activity was measured upon co-expression of JAK1 and KRAS WT, G12V, or G12V with 8-mer. Fold of Control (FOC) with IFN-γ stimulation was calculated comparing to samples without IFN-γ stimulation. Cells were treated with 1 ng/ml IFN-γ for 18 hours after 24 hours of transfection. Dual-luciferase assays were performed, and relative luciferase activity was measured normalized to Renilla luciferase control.

[6] = target: T1, KRAS-G12V-JAK1 interaction; assay: GST-affinity pull-down assay; type: binding
[7] = test system: KRAS isogenic cell lines SW48, LIM1215, H838; assay: IFNγ-induced cell death in KRAS-WT and G12V isogenic cells; type: cell-based; conditions: FIG. 4A; for cell killing without IFNγ: no IFNγ
Description: Bar graphs show the cell death of three pairs of KRAS isogenic cell lines SW48, LIM1215, H838 under different treatment conditions.
Bar graphs show cell death in three KRAS isogenic G12V cell lines in response to IFNγ stimulation and 8-mer peptide, with or without treatment with a JAK1 inhibitor or an IFNγ-receptor antagonist.

[8] = test system: HLA-A2+ KRAS WT/G12V cancer cells; assay: anti-NY-ESO-1 CD8+ T cell-mediated killing, CellTiter Blue viability; type: cell-based; conditions: under T-cell stimulation; FIG. 5A-5F
Protocol: The lentivirus-transduced HLA-A2+ parental KRAS WT cells, SW48-A2+ and their KRAS G12V knock-in isogenic cells were co-cultured with anti-NY-ESO-1 CD8+ T cells, or treated with RasKi, RasKi-K606E, or in combinations as indicated. The cell viability after treatment was measured using CellTiter Blue™ reagent. The growth inhibition was normalized to the untreated control.
The lentivirus-transduced HLA-A2+ patient derived KRAS WT colon cancer cells (SW48-A2+, LIM1215-A2+ and Caco-2-A2+) and KRASG12V colon cancer cells (SW403-A2+, SW480-A2+ and SW620-A2+) were co-cultured with anti-NY-ESO-1 CD8+ T cells, or treated with RasKi, RasKi-K606E, or in combinations as indicated. The cell viability after treatment was measured using CellTiter Blue™ reagent. The growth inhibition was normalized to the untreated control.
The G12V isogenic cells (SW48G12V-A2+, LIM1215G12V-A2+ and H838G12V-A2+) and were co-cultured with anti-NY-ESO-1 CD8+ T cells and treated with RasKi, or in addition with JAK inhibitor (JAKi) or IFNγ receptor antagonist (IFNγRa) as indicated. The cell viability after treatment was measured using CellTiter Blue™ reagent. The growth inhibition was normalized to the untreated control. Each dot represents an individual cell line.
A gene-engineered CD8+ T cell was produced to specifically target an antigen expressed in an HLA-class I-restricted manner. […]

JAK-STAT pathway [9] = assay: IFN-γ stimulated signaling under endogenous conditions in SW48 KRAS isogenic cell lines (luciferase, Western blot, RT-qPCR); type: cell-based; conditions: SW48 G12V cells, IFN-γ 1 ng/ml 18 hours, FIG. 3E
Protocol: FOC (Fold of control) of STAT1 transcriptional activity was calculated in SW48 (KRAS isogenic colon cancer) WT and G12V cell lines with IFN-γ stimulation comparing to that without IFN-γ stimulation. RasKi was transduced into G12V cells by lentivirus. Cells were treated with IFN-γ (1 ng/ml) for 18 hours after 24 hours of transduction. Dual-luciferase assays were performed, and relative luciferase activity was measured, normalized to Renilla luciferase control.
Western Blot was performed to detect changes in the JAK-STAT pathway in SW48 cell lines (KRAS isogenic colon cancer with G12V), with or without IFN-γ (1 ng/ml) for 30 minutes. FOC bar graphs show STAT1/3 phosphorylation, IRF1 and TAP1 expression in three groups after IFN-γ stimulation comparing to basal level.
Expression of TAP1, IRF1, PD-L1 mRNA was normalized to GAPDH in SW48 cell lines as detected using RT-qPCR (reverse transcription-quantitative polymerase chain reaction). Cells were treated with IFN-γ (1 ng/ml) for 18 hours.

[10] = cell permeability of the peptide; type: cell-based

CSCC[C@H](N)C(=O)N[C@@H](CC(=O)O)C(=O)N[C@@H](Cc1ccc(O)cc1)C(=O)N[C@@H](CCCCN)C(=O)N[C@@H](CC(=O)O)C(=O)N[C@@H](CC(=O)O)C(=O)N[C@@H](CCC(=O)O)C(=O)NCC(=O)O [RasKi] (H-MDYKDDEG-OH; N-terminus and C-terminus assumed)
disruption of the KRAS-G12V/JAK1 interaction at endogenous level [1]: effectively disrupt the interaction | disruption of the JAK1/KRAS-G12V interaction [2]: effectively disrupt | killing of cells with WT KRAS together with NK92 cells ([3]; KRAS WT cells, NK92 co-culture): but not cells with WT KRAS | killing of cancer cells with KRAS-G12V together with NK92 cells ([3]; KRAS-G12V cells, NK92 co-culture): synergized with NK92 cells to induce dose-dependent killing | viability of cancer cells, peptide per se ([3]; WT or G12V cells, without NK92 cells): had no effect | STAT1/3 phosphorylation (JAK-STAT pathway [4]; IFN-γ 1 ng/ml, 30 minutes): increased | expression of IRF1 and TAP1 proteins (JAK-STAT pathway [4]; IFN-γ stimulation): increased | STAT1 transcriptional activity upon IFNγ treatment [5]: completely reversed the KRAS-G12V effect | competition with JAK1 full length for binding to KRAS-G12V ([6]; GST pull-down, FIG. 2C, 2E): can compete | binding to KRAS-G12V ([6]; JAK1 truncation mapping): sufficient for KRAS-G12V binding | cell killing without IFNγ [7]: no difference | cell killing without IFNγ ([7]; listed as 8-mer): No cell killing effect | IFNγ-induced killing effect in cells with KRAS-G12V ([7]; with IFNγ, compared to KRAS-WT cells): drastically increased | T-cell killing in G12V cells [8]: enhanced T-cell killing | expression of mRNAs for IRF1, TAP1, and PD-L1 (JAK-STAT pathway [9]): increased | cell permeability [10]: cell permeable
